For test [1], the target named is T1, Adrenergic receptor alpha-2 (Homo sapiens, UniProt P08913+P18825+P18089).
T1 sequence (P08913 whole entry): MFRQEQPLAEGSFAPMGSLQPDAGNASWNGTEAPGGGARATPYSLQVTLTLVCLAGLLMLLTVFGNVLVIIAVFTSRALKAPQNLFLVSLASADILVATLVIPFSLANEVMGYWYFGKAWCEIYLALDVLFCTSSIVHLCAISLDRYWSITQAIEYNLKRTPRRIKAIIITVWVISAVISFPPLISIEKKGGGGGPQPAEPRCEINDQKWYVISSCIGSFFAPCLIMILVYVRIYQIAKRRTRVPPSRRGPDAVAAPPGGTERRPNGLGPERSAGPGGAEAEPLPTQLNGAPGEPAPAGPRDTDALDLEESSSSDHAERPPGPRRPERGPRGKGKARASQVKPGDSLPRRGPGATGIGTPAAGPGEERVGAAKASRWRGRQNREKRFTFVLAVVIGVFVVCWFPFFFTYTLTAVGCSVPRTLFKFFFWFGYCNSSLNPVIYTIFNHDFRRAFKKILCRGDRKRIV
T1 sequence (P18825 whole entry): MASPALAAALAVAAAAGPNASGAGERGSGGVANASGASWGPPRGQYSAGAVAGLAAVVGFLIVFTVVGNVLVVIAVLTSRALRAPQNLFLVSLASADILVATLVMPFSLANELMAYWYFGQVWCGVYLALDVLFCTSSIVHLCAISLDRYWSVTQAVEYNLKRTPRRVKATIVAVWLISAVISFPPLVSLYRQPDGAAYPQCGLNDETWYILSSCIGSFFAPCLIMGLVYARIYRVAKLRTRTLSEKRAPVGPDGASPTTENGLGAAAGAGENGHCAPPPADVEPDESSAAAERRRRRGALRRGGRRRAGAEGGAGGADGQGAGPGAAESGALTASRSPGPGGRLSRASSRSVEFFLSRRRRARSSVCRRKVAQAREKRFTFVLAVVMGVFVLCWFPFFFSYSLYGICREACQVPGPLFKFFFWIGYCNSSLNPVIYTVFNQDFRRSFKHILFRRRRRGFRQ
T1 sequence (P18089 whole entry): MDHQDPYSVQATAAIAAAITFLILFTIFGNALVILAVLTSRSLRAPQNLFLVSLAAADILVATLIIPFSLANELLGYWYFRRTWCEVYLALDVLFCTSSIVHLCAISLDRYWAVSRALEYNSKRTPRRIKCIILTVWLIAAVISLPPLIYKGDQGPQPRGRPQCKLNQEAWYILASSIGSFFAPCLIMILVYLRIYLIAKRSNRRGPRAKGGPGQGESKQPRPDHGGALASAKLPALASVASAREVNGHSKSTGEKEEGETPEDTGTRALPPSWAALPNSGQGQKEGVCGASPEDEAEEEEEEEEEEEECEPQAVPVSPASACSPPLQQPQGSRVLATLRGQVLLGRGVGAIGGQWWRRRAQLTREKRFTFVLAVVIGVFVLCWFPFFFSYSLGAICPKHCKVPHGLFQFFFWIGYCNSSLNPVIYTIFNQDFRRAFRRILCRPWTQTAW
Put plainly: Inhibition of human alpha 2 adrenoceptor.

In test [2] the target is T2, 5-hydroxytryptamine receptor 1A (Homo sapiens, UniProt P08908).
T2 sequence (P08908 whole entry): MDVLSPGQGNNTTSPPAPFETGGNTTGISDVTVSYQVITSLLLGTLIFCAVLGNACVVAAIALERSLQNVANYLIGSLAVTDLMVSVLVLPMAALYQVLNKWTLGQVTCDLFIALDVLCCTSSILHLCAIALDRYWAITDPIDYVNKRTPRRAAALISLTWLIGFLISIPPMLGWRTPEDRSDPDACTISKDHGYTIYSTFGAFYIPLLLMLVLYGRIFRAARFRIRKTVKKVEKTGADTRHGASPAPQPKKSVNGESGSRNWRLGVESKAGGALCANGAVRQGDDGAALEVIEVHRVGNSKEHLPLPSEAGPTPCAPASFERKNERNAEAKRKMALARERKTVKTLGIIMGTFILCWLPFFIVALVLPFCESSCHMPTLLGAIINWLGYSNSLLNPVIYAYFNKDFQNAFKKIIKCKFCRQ
As to the kind of experiment: Inhibition of human 5HT1A receptor.

Here are results for 3 compounds from ChEMBL document CHEMBL1155221, “Identification of novel indanylsulfonamide guanylhydrazones as potent 5-HT6 serotonin receptor antagonists” (J Med Chem, 2009).

Molecules are shown by their SMILES. pIC50: −log10 of the molar value. Where only a bound is given, the exact number is not on record here.

With `O=S(=O)(Nc1ccc2c(c1)/C(=N/NC1=NCCN1)CC2)c1c(Cl)nc2sccn12`, in test [1], the IC50 was greater than 1 ×10⁴ nM. Usually pIC50 stands for the negative decadic logarithm of the IC50, by convention in mol/L. Compound `Cl.N=C(N)N/N=C1\CCc2ccc(NS(=O)(=O)c3c(Cl)nc4sccn34)cc21` displayed an IC50 in test [1] greater than 1 ×10⁴ nM. Further, in test [2], the pIC50 is less than 5.00. For `CC1Cc2ccc(NS(=O)(=O)c3c(Cl)nc4sccn34)cc2/C1=N/NC(=N)N.Cl` (racemic), the negative-log IC50 (pIC50) in test [1] and in test [2] was less than 6.00 in each case.
